For 13 molecules, LC retention time results are on record in the RepoRT retention time repository.

A short description of this series: Agilent ZORBAX 300 SB-C18, 150 × 1 mm, 3.5 µm; A: water + 0.01% heptafluorobutyric acid; B: acetonitrile + 0.01% heptafluorobutyric acid; gradient (min/%B) 0/0 100/90. Particulars: stereoisomer not certain.
For `C=CCN1CCC23c4c5ccc(O)c4OC2C(=O)CCC3(O)C1C5` (stereo not drawn), the LC retention time came to 8.17 min.
For `O=C(O)C1(c2ccccc2)CCCCN1` (stereo not drawn) the value was 6.67 min; for `O=C(Nc1cccnc1)c1ccccn1`, 8.14 min.
For `CN(C)c1c[nH]c(=O)[nH]c1=O` the value was 6.22 min.
For `O=C(Nc1ccc(Cc2ccncc2)cc1)c1ccc2ccccc2n1` the value was 11.4 min; for `CCCNC(=O)c1ccccc1N`, 9.35 min; for `NCCCCCC(=O)O`, 6.81 min.
As to `NCCCn1ccnc1`, the LC retention time is 6.66 min.
Then `CN(CCc1ccccn1)Cc1ccccn1`, with 7.79 min; and `CCN(CC)CCCN`, with 6.92 min; and `CCCCCCCCCCOc1ccc(C(=O)NCCN2Cc3ccccc3C2=O)cc1`, with 20.2 min.
As to `Cc1ccc(-n2c(C)cc(C=CC(=O)O)c2C)cc1`, the LC retention time worked out at 14.4 min.
For `COC(=O)c1ccc(Cn2c(=O)n(C)c(=O)c3ccccc32)cc1` the value was 13.1 min.
